Results from ChEMBL document CHEMBL1201862, “PubChem BioAssay data set” (2004).
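Tested at 5 concentrations; 48 h exposure; 96-well plates; endpoints linearly interpolated, else capped at highest concentration. GI50 = concentration required for 50% inhibition of growth.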 Activity calls are given as the source filed them. Cut-off read from the data, not from the text of the source: active = GI50 up to about 1.1 µM and inactive = higher.

How the values were obtained:
Assay in all cases: NCI anticancer screen, dose series, 48 h
UACC-257 = test system: UACC-257
NCI-H226 = test system: NCI-H226
KM-20L2 = test system: KM-20L2
OVCAR-4 = test system: OVCAR-4
KM12 = test system: KM12
RXF 393 = test system: RXF 393
SF-295 = test system: SF-295
HOP-62 = test system: HOP-62
DU-145 = test system: DU-145
MOLT-4 = test system: MOLT-4
BT-549 = test system: BT-549
NCI-H23 = test system: NCI-H23
DLD-1 = test system: DLD-1
DMS-114 = test system: DMS-114
PC-3 = test system: PC-3
OVCAR-3 = test system: OVCAR-3
XF498 = test system: XF498
CCRF-CEM = test system: CCRF-CEM
HOP-92 = test system: HOP-92
Malme-3M = test system: Malme-3M
ACHN = test system: ACHN
K562 = test system: K562
NCI-H522 = test system: NCI-H522
NCI/ADR-RES = test system: NCI/ADR-RES
M19-MEL = test system: M19-MEL
HCT-116 = test system: HCT-116
SNB-19 = test system: SNB-19
RPMI-8226 = test system: RPMI-8226
HL-60 = test system: HL-60
OVCAR-5 = test system: OVCAR-5
HT-29 = test system: HT-29
EKVX = test system: EKVX
HCT-15 = test system: HCT-15
A549 = test system: A549
IGROV-1 = test system: IGROV-1
CAKI-1 = test system: CAKI-1
DMS-273 = test system: DMS-273
TK-10 = test system: TK-10
UO-31 = test system: UO-31
LOX IMVI = test system: LOX IMVI
SN12C = test system: SN12C
NCI-H460 = test system: NCI-H460
A498 = test system: A498
SK-MEL-2 = test system: SK-MEL-2
SF-268 = test system: SF-268
SK-MEL-5 = test system: SK-MEL-5
786-0 = test system: 786-0
SK-MEL-28 = test system: SK-MEL-28
SNB-75 = test system: SNB-75
M14 = test system: M14
SK-OV-3 = test system: SK-OV-3
SF-539 = test system: SF-539
LXFL 529 = test system: LXFL 529
UACC-62 = test system: UACC-62
SW-620 = test system: SW-620
OVCAR-8 = test system: OVCAR-8
COLO 205 = test system: COLO 205
HCC 2998 = test system: HCC 2998

CCc1ccc(NCc2cc(OC)c(OC)c(OC)c2)cc1
GI50 (UACC-257): 17.2 µM (inactive)
GI50 (NCI-H226): 4.65 µM (inactive)
GI50 (KM-20L2): 0.388 µM (active)
GI50 (OVCAR-4): 26.7 µM (inactive)
GI50 (KM12): 0.0537 µM (active)
GI50 (RXF 393): 0.224 µM (active)
GI50 (SF-295): 0.109 µM (active)
GI50 (HOP-62): 0.366 µM (active)
GI50 (DU-145): 0.399 µM (active)
GI50 (MOLT-4): 0.159 µM (active)
GI50 (BT-549): < 0.01 µM (active)
GI50 (NCI-H23): 0.532 µM (active)
GI50 (DLD-1): 0.592 µM (active)
GI50 (DMS-114): 0.586 µM (active)
GI50 (PC-3): 0.186 µM (active)
GI50 (OVCAR-3): 0.123 µM (active)
GI50 (XF498): 1.69 µM (inactive)
GI50 (CCRF-CEM): 0.158 µM (active)
GI50 (HOP-92): 1.09 µM (active)
GI50 (Malme-3M): 0.256 µM (active)
GI50 (ACHN): 3.51 µM (inactive)
GI50 (K562): 0.0728 µM (active)
GI50 (NCI-H522): 0.109 µM (active)
GI50 (NCI/ADR-RES): < 0.0416 µM (active)
GI50 (M19-MEL): 0.579 µM (active)
GI50 (HCT-116): 0.122 µM (active)
GI50 (SNB-19): 0.902 µM (active)
GI50 (RPMI-8226): 0.303 µM (active)
GI50 (HL-60): 0.0603 µM (active)
GI50 (OVCAR-5): 4.9 µM (inactive)
GI50 (HT-29): 0.105 µM (active)
GI50 (EKVX): 4.95 µM (inactive)
GI50 (HCT-15): 0.0847 µM

CCCCCC1C2C(=O)NC(=O)C1C(=O)NC2=O (stereo unspecified)
GI50 (UACC-257): > 100 µM (inactive)
GI50 (NCI-H226): > 100 µM (inactive)
GI50 (A549): > 100 µM (inactive)
GI50 (IGROV-1): > 100 µM (inactive)
GI50 (KM-20L2): > 100 µM (inactive)
GI50 (OVCAR-4): > 100 µM (inactive)
GI50 (KM12): > 100 µM (inactive)
GI50 (CAKI-1): > 100 µM (inactive)
GI50 (RXF 393): > 100 µM (inactive)
GI50 (SF-295): > 100 µM (inactive)
GI50 (HOP-62): > 100 µM (inactive)
GI50 (DMS-273): > 100 µM (inactive)
GI50 (MOLT-4): > 100 µM (inactive)
GI50 (TK-10): > 100 µM (inactive)
GI50 (NCI-H23): > 100 µM (inactive)
GI50 (DLD-1): > 100 µM (inactive)
GI50 (DMS-114): > 100 µM (inactive)
GI50 (UO-31): > 100 µM (inactive)
GI50 (LOX IMVI): > 100 µM (inactive)
GI50 (OVCAR-3): > 100 µM (inactive)
GI50 (SN12C): > 100 µM (inactive)
GI50 (NCI-H460): > 100 µM (inactive)
GI50 (XF498): > 100 µM (inactive)
GI50 (A498): > 100 µM (inactive)
GI50 (SK-MEL-2): > 100 µM (inactive)
GI50 (CCRF-CEM): > 100 µM (inactive)
GI50 (HOP-92): > 100 µM (inactive)
GI50 (SF-268): > 100 µM (inactive)
GI50 (Malme-3M): > 100 µM (inactive)
GI50 (SK-MEL-5): > 100 µM (inactive)
GI50 (786-0): > 100 µM (inactive)
GI50 (ACHN): > 100 µM (inactive)
GI50 (K562): > 100 µM (inactive)
GI50 (NCI-H522): > 100 µM (inactive)
GI50 (SK-MEL-28): > 100 µM (inactive)
GI50 (M19-MEL): > 100 µM (inactive)
GI50 (SNB-75): > 100 µM (inactive)
GI50 (M14): > 100 µM (inactive)
GI50 (SK-OV-3): > 100 µM (inactive)
GI50 (SF-539): > 100 µM (inactive)
GI50 (LXFL 529): > 100 µM (inactive)
GI50 (SNB-19): > 100 µM (inactive)
GI50 (RPMI-8226): > 100 µM (inactive)
GI50 (UACC-62): > 100 µM (inactive)
GI50 (SW-620): > 100 µM (inactive)
GI50 (OVCAR-8): > 100 µM (inactive)
GI50 (COLO 205): > 100 µM (inactive)
GI50 (HL-60): > 100 µM (inactive)
GI50 (OVCAR-5): > 100 µM (inactive)
GI50 (HCC 2998): > 100 µM (inactive)
GI50 (HT-29): > 100 µM (inactive)
GI50 (EKVX): > 100 µM (inactive)
GI50 (HCT-15): > 100 µM
